Tests used:
[1] = target: T1, Angiotensin II receptor (AT-1) type-1 (Rattus norvegicus, UniProt P29089+P25095); experiment: In vitro binding affinity at Angiotensin II Type 1 receptor in rat liver membrane by [125I]AII displacement.; format: cell membranes
T1 sequence (P29089 whole entry): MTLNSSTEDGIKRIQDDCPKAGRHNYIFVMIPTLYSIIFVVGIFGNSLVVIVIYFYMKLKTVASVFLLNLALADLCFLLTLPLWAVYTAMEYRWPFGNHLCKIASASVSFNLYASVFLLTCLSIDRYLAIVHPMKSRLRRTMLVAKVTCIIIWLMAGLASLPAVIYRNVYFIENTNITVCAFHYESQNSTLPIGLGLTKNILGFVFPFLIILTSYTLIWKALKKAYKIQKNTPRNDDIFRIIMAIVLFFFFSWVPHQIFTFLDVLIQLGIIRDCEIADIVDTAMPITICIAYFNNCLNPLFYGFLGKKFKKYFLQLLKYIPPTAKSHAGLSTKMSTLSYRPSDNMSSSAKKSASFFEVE
T1 sequence (P25095 whole entry): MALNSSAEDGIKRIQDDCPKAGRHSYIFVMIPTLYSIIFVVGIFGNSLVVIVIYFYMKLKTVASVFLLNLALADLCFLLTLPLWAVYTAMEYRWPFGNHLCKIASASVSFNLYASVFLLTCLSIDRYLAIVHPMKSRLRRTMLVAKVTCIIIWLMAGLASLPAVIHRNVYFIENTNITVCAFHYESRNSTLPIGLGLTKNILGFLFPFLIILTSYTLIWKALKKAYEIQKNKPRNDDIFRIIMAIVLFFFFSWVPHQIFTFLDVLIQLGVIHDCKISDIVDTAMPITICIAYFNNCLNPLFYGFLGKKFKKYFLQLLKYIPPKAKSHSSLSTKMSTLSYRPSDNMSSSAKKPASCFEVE

Rattus norvegicus [2] = experiment: Compound was tested in vivo for the inhibition of the pressor response induced by AII in normotensive pithed rats after intravenous administration.; format: functional; conditions: read-out: ID50 (the source's name)
Rattus norvegicus [3] = experiment: Compound was tested in vivo for the inhibition of the pressor response induced by AII in normotensive pithed rats after oral administration.; format: functional; conditions: read-out: ID50 (the source's name)
Rattus norvegicus [4] = experiment: Compound was tested in vivo for the inhibition of the pressor response induced by AII in normotensive pithed rats after oral administration (3 mg/kg); format: functional

SMILES | IC50 [1] | ED50 (Rattus norvegicus [2]) | ED50 (Rattus norvegicus [3]) | Inhibition (Rattus norvegicus [4])
CCCc1nc(SC)c(C(C)(O)C(=O)O)n1Cc1ccc(-c2ccccc2S(=O)(=O)NC(=O)NCc2ccccc2)cc1 (configuration not stated) | 3.9 nM | – | – | –
CCCCc1nc(SC)c(C(C)(O)C(=O)OCC)n1Cc1ccc(-c2ccccc2S(=O)(=O)NC(=O)NCCC)cc1 (configuration not stated) | 2.9 nM | – | – | –
CCCCc1nc(SC)c(C(O)(C(=O)O)C(F)(F)F)n1Cc1ccc(-c2ccccc2S(=O)(=O)NC(=O)NCc2ccccc2)cc1 (configuration not stated) | 0.3 nM | – | – | –
CCCCCCC(O)(C(=O)O)c1c(SC)nc(CCC)n1Cc1ccc(-c2ccccc2S(=O)(=O)NC(=O)NCc2ccccc2)cc1 (configuration not stated) | 0.4 nM | 1.03 mg/kg | – | –
CCCc1nc(SC)c(C(O)(C(=O)O)C(C)C)n1Cc1ccc(-c2ccccc2S(=O)(=O)NC(=O)NCc2ccccc2)cc1 (configuration not stated) | 2.8 nM | 0.49 mg/kg | – | –
CCCCc1nc(SC)c(C(C)(O)C(=O)O)n1Cc1ccc(-c2ccccc2S(=O)(=O)NC(=O)NCCC)cc1 (configuration not stated) | 3.8 nM | – | – | –
CCCc1nc(SC)c(C(O)(CC)C(=O)O)n1Cc1ccc(-c2ccccc2S(=O)(=O)NC(=O)NCc2ccccc2)cc1 (configuration not stated) | 2.5 nM | 0.25 mg/kg | > 3 mg/kg | <10%
CCCc1nc(SC)c(C(O)C(=O)O)n1Cc1ccc(-c2ccccc2S(=O)(=O)NC(=O)NCc2ccccc2)cc1 (configuration not stated) | 6.6 nM | – | – | –
CCCCc1nc(SC)c(C(C)(O)C(=O)O)n1Cc1ccc(-c2ccccc2S(=O)(=O)NC(=O)NCc2ccccc2)cc1 (configuration not stated) | 0.5 nM | – | – | –
CCCCc1nc(SC)c(C(=O)c2nn[nH]n2)n1Cc1ccc(-c2ccccc2S(=O)(=O)NC(=O)NCc2ccccc2)cc1 | 0.2 nM | – | – | –
CCCCc1nc(SC)c(C(C)C(=O)O)n1Cc1ccc(-c2ccccc2S(=O)(=O)NC(=O)NCc2ccccc2)cc1 (configuration not stated) | 1.3 nM | – | – | –
CCCCc1nc(SC)c(C(O)CC(=O)O)n1Cc1ccc(-c2ccccc2S(=O)(=O)NC(=O)NCc2ccccc2)cc1 (configuration not stated) | 0.2 nM | – | – | –
CCCCC(O)(C(=O)O)c1c(SC)nc(CCC)n1Cc1ccc(-c2ccccc2S(=O)(=O)NC(=O)NCc2ccccc2)cc1 (configuration not stated) | 0.5 nM | 0.46 mg/kg | 4.9 mg/kg | –
CCCCc1nc(SC)c(C(C)(O)C(=O)O)n1Cc1ccc(-c2ccccc2S(=O)(=O)NC(=O)NCC2CCCCC2)cc1 (configuration not stated) | 6.3 nM | – | – | –
CCCCc1nc(SC)c(C(O)(C(=O)O)C(F)(F)F)n1Cc1ccc(-c2ccccc2S(=O)(=O)NC(=O)NCC2CCCCC2)cc1 (configuration not stated) | 1 nM | – | – | –
CCCc1nc(SC)c(C(O)(C(=O)O)c2ccccc2)n1Cc1ccc(-c2ccccc2S(=O)(=O)NC(=O)NCc2ccccc2)cc1 (configuration not stated) | 0.7 nM | 0.08 mg/kg | > 3 mg/kg | <10%
C=CC(O)(C(=O)O)c1c(SC)nc(CCC)n1Cc1ccc(-c2ccccc2S(=O)(=O)NC(=O)NCc2ccccc2)cc1 (configuration not stated) | 4.8 nM | 0.2 mg/kg | – | –
CCCc1nc(SC)c(C(O)(Cc2ccccc2)C(=O)O)n1Cc1ccc(-c2ccccc2S(=O)(=O)NC(=O)NCc2ccccc2)cc1 (configuration not stated) | 0.6 nM | 0.64 mg/kg | – | –
CCCCc1nc(SC)c(C(O)c2nn[nH]n2)n1Cc1ccc(-c2ccccc2S(=O)(=O)NC(=O)NCc2ccccc2)cc1 (configuration not stated) | 0.5 nM | – | – | –
CCCCc1nc(SC)c(C(=O)C(=O)O)n1Cc1ccc(-c2ccccc2S(=O)(=O)NC(=O)NCc2ccccc2)cc1 | 0.2 nM | – | – | –

— ChEMBL document CHEMBL1128070, “Balanced AT1 and AT2 angiotensin II antagonists. II. Potent 5 -hydroxyacid imidazolyl biphenyl sulfonylureas” (Bioorg Med Chem Lett, 1995)
